Calls of active or inactive are those of the source. No rule for the calls is given here.
system: Broad 7084-01 inhibitor HTS, set 2; test: inhibitors in Broad screen 7084-01, set 2 (AID 977613);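 also: host cells are infected with parasite promastigotes that become internalized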

| SMILES | active concentration |
| --- | --- |
| O=C(c1ccccc1F)N1CC(=O)N2[C@H](CO)[C@@H](c3ccc(C#Cc4ccccc4)cc3)[C@H]2C1 | > 10 µM (inactive) |
| COCC(=O)N1[C@@H]2c3ccc(/C=C/c4ccccc4)c(=O)n3C[C@H]1[C@H](CO)[C@H]2C(=O)N1CCOCC1 | > 10 µM (inactive) |
| O=C([C@@H]1[C@@H](CO)[C@@H]2Cn3c(ccc(C4=CCCCC4)c3=O)[C@H]1N2Cc1nccs1)N1CCCCC1 | > 10 µM (inactive) |
| O=C1CN(S(=O)(=O)Cc2ccccc2)C[C@@H]2[C@@H](c3ccc(C#Cc4ccccc4)cc3)[C@@H](CO)N12 | > 10 µM (inactive) |
| CC(C)NC(=O)N1CC2(C1)[C@H](c1ccccc1)[C@@H](CO)N2C(=O)C1CCCC1 | > 10 µM (inactive) |
| CCC(=O)N1CC(=O)N2[C@H](CO)[C@H](c3ccc(-c4ccc(C#N)cc4)cc3)[C@H]2C1 | > 10 µM (inactive) |
| Cc1ccccc1-c1ccccc1[C@@H]1[C@@H](C#N)N(C(=O)c2cccc(F)c2)[C@H]1CO | > 10 µM (inactive) |
| CCS(=O)(=O)Nc1ccc2c(c1)C(=O)N(C)[C@H]1CC[C@H](CC(=O)N[C@@H]3CCN(Cc4ccccc4)C3)O[C@H]1CO2 | > 10 µM (inactive) |
| O=C(C[C@@H]1CC[C@H]2[C@@H](COC[C@@H](O)CN2C(=O)Cc2ccccc2)O1)NC1CCCC1 | > 10 µM (inactive) |
| OC[C@@H]1[C@@H]2c3ccccc3NC[C@@H]2N1Cc1cccnc1 | > 10 µM (inactive) |
| O=C(C[C@H]1CC[C@H]2[C@@H](COC[C@@H](O)CN2C(=O)Nc2ccc(C(F)(F)F)cc2)O1)NCC1CC1 | > 10 µM (inactive) |
| O=C(Nc1cccc(Cl)c1)N1C[C@@H]2[C@H](c3ccccc31)[C@@H](CO)N2CC1CCOCC1 | > 10 µM (inactive) |
| CN(C)C(=O)C[C@@H]1CC[C@@H]2[C@H](COC[C@@H](O)CN2CC2CC2)O1 | > 10 µM (inactive) |
| O=C(C[C@H]1CC[C@H]2[C@@H](COC[C@@H](O)CN2C(=O)c2ccccc2F)O1)NCc1ccccc1 | > 10 µM (inactive) |
| CC(=O)N1CCCCN2[C@H](CO)[C@H](c3ccc(-c4ccccc4)cc3)[C@H]2C1 | > 10 µM (inactive) |
| CN(C)C(=O)c1cccc(-c2ccc([C@H]3[C@H](CO)N4C(=O)CN(C(=O)C5CCC5)C[C@@H]34)cc2)c1 | > 10 µM (inactive) |
| O=C(C[C@H]1CC[C@H]2[C@@H](COC[C@H](O)CN2C(=O)C2CC2)O1)NCc1ccncc1 | > 10 µM (inactive) |
| CCCNC(=O)N1CC(=O)N2[C@H](CO)[C@H](c3ccc(C#CCC4CCCC4)cc3)[C@@H]2C1 | > 10 µM (inactive) |
| CS(=O)(=O)N1[C@@H]2c3ccc(C4=CCCC4)c(=O)n3C[C@@H]2[C@@H](CO)[C@@H]1C(=O)NCCc1ccncc1 | > 10 µM (inactive) |
| C/C=C/c1ccc([C@@H]2[C@@H](CO)N3C(=O)CN(S(=O)(=O)c4ccccc4)C[C@@H]23)cc1 | > 10 µM (inactive) |
| CN1C[C@@H](O)COC[C@@H]2O[C@@H](CC(=O)NC3CCCC3)CC[C@H]21 | > 10 µM (inactive) |
| CN(C)C(=O)C[C@H]1CC[C@H]2[C@@H](COC[C@@H](O)CN2C(=O)C2CC2)O1 | > 10 µM (inactive) |
| COCC(=O)N1[C@H](CO)[C@@H](c2ccccc2-c2ccccc2F)[C@@H]1C#N | < 10 µM |
| COc1ccc2c3c(n(C)c2c1)[C@H](CO)N(C)CC31CCN(S(=O)(=O)c2cccc(F)c2)CC1 | > 10 µM (inactive) |

| SMILES | active concentration |
| --- | --- |
| CCCC#Cc1ccc([C@H]2[C@H]3CN(C(=O)c4cccnc4)CC(=O)N3[C@H]2CO)cc1 | > 10 µM (inactive) |
| O=C(C[C@H]1CC[C@H]2[C@@H](COC[C@@H](O)CN2CCc2ccccc2)O1)NCc1ccc(F)cc1 | > 10 µM (inactive) |
| O=C(CC1CC1)N1CC(=O)N2[C@H](CO)[C@H](c3ccc(/C=C/c4ccccc4)cc3)[C@@H]2C1 | > 10 µM (inactive) |
| C[C@H](NC(=O)[C@H]1[C@H](CO)[C@H]2Cn3c(ccc(/C=C/c4ccccc4)c3=O)[C@@H]1N2)c1ccccc1 | > 10 µM (inactive) |
| CN(C)C(=O)C[C@@H]1CC[C@@H]2[C@H](COC[C@H](O)CN2CC2CC2)O1 | > 10 µM (inactive) |
| C/C=C/c1ccc([C@@H]2[C@H](CO)N3CCCCN(S(=O)(=O)c4ccc(OC)cc4)C[C@@H]23)cc1 | > 10 µM (inactive) |
| O=C(C[C@@H]1CC[C@@H]2[C@H](COC[C@H](O)CN2CCC(F)(F)F)O1)NCC1CC1 | > 10 µM (inactive) |
| C/C=C/c1ccc([C@@H]2[C@H](CO)N(C(=O)c3cnccn3)C23CN(C(C)=O)C3)cc1 | > 10 µM (inactive) |
| C/C=C/c1ccccc1[C@H]1[C@@H](CO)N(C(=O)NC2CCCCC2)[C@H]1C#N | > 10 µM (inactive) |
| O=C(c1ccccn1)N1CC[C@@H]2[C@@H](CO)Nc3ccc(Br)cc3[C@@H]21 | > 10 µM (inactive) |
| COc1ccccc1C(=O)N1C[C@H]2[C@@H](c3ccccc31)[C@@H](CO)N2C(=O)Cc1cccnc1 | > 10 µM (inactive) |
| COc1cccc(C#Cc2ccc3c(c2)[C@@H]2[C@@H](CCN2C(=O)CC2CC2)[C@@H](CO)N3)c1 | > 10 µM (inactive) |
| N#C[C@H]1[C@@H](c2ccccc2-c2cccc(F)c2)[C@@H](CO)N1C(=O)CN1CCOCC1 | > 10 µM (inactive) |
| CCNC(=O)[C@H]1[C@H](CO)[C@H]2Cn3c(ccc(-c4ccccc4)c3=O)[C@H]2N1CC | > 10 µM (inactive) |
| COc1cccc(NC(=O)N2C[C@@H](O)COC[C@@H]3O[C@@H](CC(=O)NC4CCC4)CC[C@H]32)c1 | > 10 µM (inactive) |
| COc1cccc(C(=O)Nc2ccc3c(c2)C(=O)N(C)[C@H]2CC[C@@H](CC(=O)NCCCN4CCOCC4)O[C@H]2CO3)c1 | > 10 µM (inactive) |
| COc1ccccc1NC(=O)N1CC(=O)N2[C@H](CO)[C@H](c3ccc(-c4cccc(C)c4)cc3)[C@@H]2C1 | > 10 µM (inactive) |
| O=C(c1cccc(F)c1)N1C[C@@H]2[C@H](c3ccccc31)[C@H](CO)N2Cc1cocn1 | > 10 µM (inactive) |
| O=C(c1ccccn1)N1C[C@H]2[C@@H](c3ccccc31)[C@@H](CO)N2C(=O)Nc1ccccc1F | > 10 µM (inactive) |
| CC(C)C#Cc1ccc([C@@H]2[C@@H](CO)N3C(=O)CN(C(=O)c4ccc5c(c4)OCO5)C[C@H]23)cc1 | > 10 µM (inactive) |
| O=C(C[C@H]1CC[C@@H]2[C@H](COC[C@@H](O)CN2S(=O)(=O)c2cccc(F)c2)O1)Nc1ccc(-c2ccccc2)cc1 | > 10 µM (inactive) |
| CC(C)(O)C#Cc1ccc([C@@H]2[C@H](CO)N3CCCCN(S(C)(=O)=O)C[C@@H]23)cc1 | > 10 µM (inactive) |
| COc1cccc(-c2ccc([C@H]3[C@H]4CNCC(=O)N4[C@H]3CO)cc2)c1 | > 10 µM (inactive) |
| O=C(C[C@@H]1CC[C@@H]2[C@H](COC[C@H](O)CN2C(=O)c2ccc3c(c2)OCO3)O1)NC1CCC1 | > 10 µM (inactive) |

| SMILES | active concentration |
| --- | --- |
| O=C(c1cnccn1)N1CC(=O)N2[C@@H](CO)[C@H](c3ccc(C#CC4CC4)cc3)[C@@H]2C1 | > 10 µM (inactive) |
| O=C(NC1CCCCC1)[C@@H]1N[C@@H]2c3ccc(-c4cccc(F)c4)c(=O)n3C[C@@H]2[C@H]1CO | > 10 µM (inactive) |
| O=C(Nc1cccc(F)c1)N1C[C@@H]2[C@H](c3ccccc31)[C@@H](CO)N2C(=O)Cc1ccccn1 | > 10 µM (inactive) |
| OC[C@H]1[C@H]2c3ccccc3NC[C@H]2N1Cc1cccnc1 | > 10 µM (inactive) |
| COc1cc(CN2CC3(CN(C(=O)CN4CCOCC4)C3)c3c(n(C)c4cc(OC)ccc34)[C@@H]2CO)cc(OC)c1 | > 10 µM (inactive) |
| C/C=C/c1ccc([C@@H]2[C@H](CO)N(S(=O)(=O)CC)C23CN(C(C)=O)C3)cc1 | > 10 µM (inactive) |
| O=C(CC(F)(F)F)N1C[C@H]2[C@@H](c3ccccc31)[C@@H](CO)N2CC1CCOCC1 | > 10 µM (inactive) |
| CCN1[C@@H]2c3ccc(-c4ccccc4F)c(=O)n3C[C@H]1[C@H](CO)[C@H]2C(=O)NCc1ccc(F)cc1 | > 10 µM (inactive) |
| COc1ccc(-c2ccccc2[C@H]2[C@@H](C#N)N(C(=O)C3CCCCC3)[C@H]2CO)cc1 | > 10 µM (inactive) |
| COc1cccc(S(=O)(=O)N2CC3(CCN(C)CC3)c3c([nH]c4cc(OC)ccc34)[C@@H]2CO)c1 | > 10 µM (inactive) |
| CCNC(=O)Nc1ccc2c(c1)C(=O)N(C)[C@H]1CC[C@@H](CC(=O)N[C@H](C)c3ccccc3)O[C@H]1CO2 | > 10 µM (inactive) |
| O=C(c1cnccn1)N1CC[C@@H]2[C@H](CO)Nc3ccc(-c4ccccc4F)cc3[C@@H]21 | > 10 µM (inactive) |
| CN(C)C(=O)C[C@@H]1CC[C@H]2[C@H](COc3ccc(NC(=O)c4ccc(F)cc4)cc3C(=O)N2C)O1 | > 10 µM (inactive) |
| COC(=O)[C@@H]1[C@@H](CO)[C@@H]2Cn3c(cccc3=O)[C@@H]2N1CC1CCOCC1 | > 10 µM (inactive) |
| CCCNC(=O)N1[C@H](C#N)[C@H](c2ccccc2C2=CCCCC2)[C@@H]1CO | > 10 µM (inactive) |
| COc1ccccc1-c1ccc([C@@H]2[C@@H](CO)N(CC3CC3)C23CN(S(C)(=O)=O)C3)cc1 | > 10 µM (inactive) |
| O=C(c1cccc(F)c1)N1C[C@@H]2[C@H](c3ccccc31)[C@@H](CO)N2C(=O)C1CCOCC1 | > 10 µM (inactive) |
| COc1ccc2c3c(n(C)c2c1)[C@H](CO)N(CC1CCOCC1)CC31CCN(C(=O)CN(C)C)CC1 | > 10 µM (inactive) |
| CS(=O)(=O)N1CC2(C1)[C@@H](c1ccccc1)[C@@H](CO)N2Cc1ccccn1 | > 10 µM (inactive) |
| O=C(NC1CCCCC1)N1CC(=O)N2[C@H](C1)[C@H](c1ccc(-c3ccncc3)cc1)[C@@H]2CO | > 10 µM (inactive) |
| CN1C(=O)c2cc(NC(=O)Cc3cccs3)ccc2OC[C@H]2O[C@H](CC(=O)N[C@H]3CCN(Cc4ccccc4)C3)CC[C@H]21 | > 10 µM (inactive) |
| COc1ccc(-c2ccccc2[C@H]2[C@@H](C#N)N(C(=O)NC3CCCCC3)[C@H]2CO)cc1 | > 10 µM (inactive) |
